Test results reported in US11278534B2, “Enantiomers of substituted thiazoles as antiviral compounds” (Innovative Molecules GmbH, priority 2017, dated 2022).
Converted amounts (≈) assume the structure as drawn.

Assays:
[1] = tested on: HSV-1; test: activity selectivity assay, HSV-1 infected Vero cells; type: cell-based; conditions: Human alphaherpesvirus 1
Protocol: (§1) HSV (HSV-1 Walki, HSV-1F, HSV-2 MS, HSV clinical isolates and HSV resistant strains) was cultivated on Vero cells (ATCC CCL-81) under the following conditions: The cells were grown in M199 medium (5% foetal calf serum, 2 mM glutamine, 100 IU/mL penicillin, 100 μg/mL streptomycin) in cell culture bottles at 37° C. and 5% CO2. The cells were splitted twice per week (1:4). For the infection, the medium was removed, the cells were washed with Hank's solution, detached using 0.05% trypsin, 0.02% EDTA and incubacted at a density of 4×10^5 cells/mL under the above-mentioned conditions for 24 h. The medium was removed and the virus solution was added at an m.o.i of <0.05 in a volume of 2 mL per 175 cm^2 surface. The infected cells were incubated at 37° C., 5% CO2 for 1 h and then the medium was made up to a volume of 50 mL per 175 cm^2 bottle. […] The virus was released by freezing (−80° C.) and thwawing (37° C.) the infected cultures twice. Cell debris was removed by centrifugation (300 g, 10 min, 4° C.) and the supernatant was frozen in aliquots at −80° C.
(§2) The virus titre was determined using a plaque assay. To this end, Vero cells were seeded in 24-well plates at a density of 4×10^5 cells per well and, after 24 h of incubation (37° C., 5% CO2) infected with 100 μL of inoculum (dilutions (10^−2 to 10^−12) of the virus stock). 1 h after the infection, the medium was removed and the cells were covered with 1 mL of overlay medium (0.5% methylcellulose, 0.22% sodium bicarbonate, 2 mM glutamine, 100 IU/mL penicillin, 100 μg/mL streptomycin, 5% foetal calf serum in MEM-Eagle medium with Earl's salt) and incubated for 3 d in a cell incubator at (37° C., 5% CO2). The cells were then fixated using 4% formaline for 1 h, washed with water, stained with Giemsa for 30 min and then washed and dried. Using a plaque viewer, the virus titre was determined.
(§3) The antiviral action was determined using a patented (DE10235967 and WO2004/015416) and subsequently published activity selectivity assay (G. Kleymann et al. J. Biomol. Screen. 2004; 9, 578) in 96- or 384-well mictrotitre plates using various cell lines of neuronal, lymphoid and epithelial origin, such as, for example, Vero (african green monkey kidney cells), MEF (murine embryonal fibroblasts), HELF (human embryonal fibroblasts), NT2 (human neuronal cell line) or Jurkat (human lymphoid T-cell line). The relevant experimental details of the above mentioned patent and publication to evaluate the antiviral activity of the invention (disclosed compounds) are described below.
(§4) The effect of the substances on the spreading of the cytopathogenic effect was determined in comparision to the reference compound acyclovir-sodium (Zovirax™), a clinically approved anti-herpes chemotherapeutic.
(§5) The compounds (50 mM stock solution dissolved in DMSO) are examined on microtitre plates (for example 96-well flat bottom cell culture plates) at a final concentration of 250 to 0.5 μM or, in case of potent antiviral compounds, 250 to 0.5 nM in 2 to 4 replications (4 to 2 substances per plate). Also examined are toxic and cytostatic effects or precipitation of the compounds. […]

[2] = tested on: HSV-2; test: activity selectivity assay, HSV-2 infected Vero cells; type: cell-based; conditions: Human alphaherpesvirus 2
Protocol: as §1, §2, §3, §4, §5

[3] = tested on: HSV-1 ACV resistant; test: activity selectivity assay, HSV-1 ACV resistant; type: cell-based; conditions: Human alphaherpesvirus 1
Protocol: as §1, §2, §3, §4, §5

[4] = biological target: Human Carboanhydrase II (Homo sapiens, UniProt P00918); test: carbonic anhydrase activity assay (pH indicator method); type: biochemical; conditions: for carbonic anhydrase inhibition: result in words
[5] = aqueous solubility (PBS, pH 7.4), shake flask; type: physicochemical
Protocol: The aqueous solubility (PBS, pH 7.4) was determined at Eurofins, Cerep, Panlabs according to C. A. Lipinski et al. Adv. Drug Del. Rev. 1997:46, 3. Measurement of the aqueous solubility was performed according to Lipinski, C. A. et al. Adv. Drug Del. Rev. 1997:46, 3. The relevant information from the literature is described below. […] In addition, chromatographic purity (%) was defined as the peak area of the principal peak relative to the total integrated peak area in the HPLC chromatogram of the calibration standard.

[6] = tested on: HSV-1; test: animal model, intranasal HSV-1 infection of mice, survival; type: in vivo, BALB/cABom strain; conditions: Human alphaherpesvirus 1, inhaled or nasal, 120 h; HSV-1, mice, treatment for 5 days; read-out: ED50 (50% of the infected animals survive)
Protocol: (§6) Animal experiments were performed according to patent WO2001/047904 or subsequent publications (U. A. K. Betz et al. Antimicrob. Agents Chemother. 2002:46, 1766 or G. Kleymann et al. Nat. Med. 2002; 8, 392). The relevant experimental details of the above mentioned patent and publication to evaluate the antiviral activity of the invention (disclosed compounds) in-vivo (animal models) are described below.
(§7) 6 week-old female mice, BALB/cABom strain were obtained from a commercial breeder.
(§8) Infection: The animals were anaesthetized with Et2O in a sealed glass vessel. 50 μL of a dilution of the virus stock (infection dose 5×10^4 PFU (Plaque forming units)) were introduced into the nose of the anaesthetized animals using a pipette. In 90 to 100% of the animals, this infection dose causes death by generalized infection with prominent repiratory and central-nervous symptoms on average after 5 to 8 days.
(§9) 6 hours after infection animals were treated with doses of 0.1-150 mg/kg of body mass, 3 times per day at 7 am, […] (tid) or 2 times per day at 7 am and […] (bid) or once daily at […] (od) for a period of 5 days. […] After the last administration, the animals were monitored further and the time of death was determined.

[7] = tested on: HSV-2; test: animal model, intranasal HSV-2 infection of mice, survival; type: in vivo, BALB/cABom strain; conditions: Human alphaherpesvirus 2, inhaled or nasal, 120 h; HSV-2, mice, treatment for 5 days; read-out: ED50 (50% of the infected animals survive)
Protocol: as §6, §7, §8, §9

SMILES	IC50 [1] [nM]	IC50 [2] [nM]	IC50 [3] [nM]	IC50 [4] [µM]	carbonic anhydrase inhibition [4]	solubility at 24 h ([5]; aqueous buffer, kinetic from dmso stock, pH 7.4, shake flask, 24 h incubation, rt, read-out: Solubility [μM] (PBS, pH 7.4, 200 μM Test concentration)) [µM]	increase of aqueous solubility in comparison to Example 87 (WO2001/047904) ([5]; pH 7.4)	ED50 [6] [mg/kg]	ED50 [7] [mg/kg]
Cc1nc(N(C)C(=O)Cc2ccc(-c3cc(F)ccc3F)cc2)sc1S(C)(=N)=O (racemic) [Example 7, 2-(2′,5′-Difluoro-[1,1′-biphenyl]-4-yl)-N-methyl-N-(4-methyl-5-(S-methylsulfonimidoyl)thiazol-2-yl)acetamide]	25 to 100	25 to 100	25 to 100	> 10	no or significantly reduced carbonic anhydrase inhibition	5 (≈ 2.18 µg/mL)	at least one order of mangitude	< 10	< 10
Cc1nc(N(C)C(=O)Cc2ccc(-c3cc(F)ccc3F)cc2)sc1[S@@](C)(=N)=O [Example 7(−), (−)-(S)-2-(2′,5′-Difluoro-[1,1′-biphenyl]-4-yl)-N-methyl-N-(4-methyl-5-(S-methylsulfonimidoyl)thiazol-2-yl)acetamide]	10 to 50	10 to 50	10 to 50	> 10	no or significantly reduced carbonic anhydrase inhibition			< 5	
